In US11130741B2 (Bioimics AB, priority 2016, dated 2021):
Converted amounts (≈) assume the structure as drawn. Where a name gives a salt, the structure may show the parent alone. Read-outs that look alike come from different tables or passages of the source.

Columns and labels:
[1] = system: Staphylococcus aureus (ATCC25923); test: MIC, broth microdilution (CLSI), Staphylococcus aureus ATCC25923
Method: (§1) Initial minimal inhibitory concentration (MIC) tests were made on two bacterial strains: • Escherichia coli (ATCC25922) • Staphylococcus aureus (ATCC25923).
Minimal Inhibitory Concentration (MIC)
(§2) MIC values were determined using the standard broth microdilution procedure based on the guidelines by the Clinical and Laboratory Standards Institute (CLSI). Briefly, the compounds were dissolved in DMSO to 10 mM. They were diluted in cation-adjusted Mueller-Hinton broth (CAMHB) to four times the highest concentration tested. A serial 2-fold dilution in CAMHB was done in microdilution plates. The inoculum of bacterial strain to be tested was prepared by making a suspension of colonies from an 18 to 24 hours old plate in CAMHB. The inoculum was diluted so that, after inoculation, each well contained approximately 5×10^5 CFU/mL. To a volume of 50 μl compound in CAMHB an equal volume of inoculum was added. The tray was sealed in a plastic bag and incubated at 35° C. for 16 to 20 hours. To aid in the detection of growth the dye resazurin was added to a final concentration 0.001% and incubated at room temperature for 1 h. Reduction of resazurin, and therefore bacterial growth, was seen as a change from blue to pink.

[2] = system: Escherichia coli (ATCC25922); test: MIC, broth microdilution (CLSI), Escherichia coli ATCC25922
Method: as §1
Minimal Inhibitory Concentration (MIC)
as §2

[3] = system: E. coli RNase P RNA, M1 RNA; test: Inhibition of bacterial RNase P activity, IC50 determination (cleavage of pATSerUG by M1 RNA); type: biochemical; settings: NI = No inhibition
[4] = ATCC25923, read-out: S. aureus ("Clinical") MIC
[5] = ATCC25922, read-out: E. coli MIC, Table 15, NI = No inhibition

SMILES | MIC [1, 4] | MIC [2, 5] | IC50 [3] | MIC ([1]; ATCC25923, read-out: S. aureus ("Clinical") MIC, Table 15) | MIC ([2]; ATCC25922, read-out: E. coli MIC) | IC50 ([3]; trifluoroacetate)
NC[C@H]1CC[C@H](C(=O)Nc2cc(C(F)(F)F)cc3c2Nc2ccccc2S3)CC1 [compound 120, (1R,4R)-4-(aminomethyl)-N-(3-(trifluoromethyl)-10H-phenothiazin-1-yl)cyclohexane-carboxamide] | 27 µg/mL (≈ 64.1 µM) | > 100 µg/mL | 12 µM |  |  | 
CN(C)CCCN1c2ccccc2Sc2cc(-c3ccc4[nH]ccc4c3)ccc21 [compound 121, 3-(3-(1H-indol-5-yl)-10H-phenothiazin-10-yl)-N,N-dimethylpropan-1-amine] | 6 µg/mL (≈ 15 µM) | > 100 µg/mL | > 100 µM |  |  | 
CN(C)CCCN1c2ccccc2Sc2cc(-c3ccnc(F)c3)ccc21 [compound 122, 3-(3-(2-fluoropyridin-4-yl)-10H-phenothiazin-10-yl)-N,N-dimethylpropan-1-amine] | 24 µg/mL (≈ 63.2 µM) | > 100 µg/mL | > 100 µM |  |  | 
NC1CCCC(C(=O)Nc2cc(C(F)(F)F)cc3c2Nc2cc(F)ccc2S3)C1.O=C(O)C(F)(F)F (stereo not drawn) [compound 124, 3-Amino-N-(8-fluoro-3-(trifluoromethyl)-10H-phenothiazin-1-yl)cyclohexane carboxamide. TFA Salt] | 17 µg/mL | 35 µg/mL | 59 µM |  |  | 
N[C@@H]1CCC[C@H](C(=O)Nc2cc(C(F)(F)F)cc3c2Nc2ccccc2S3)C1 [compound 125, (1S,3R)-3-amino-N-(3-(trifluoromethyl)-10H-phenothiazin-1-yl)cyclohexane-carboxamide] | 13 µg/mL (≈ 31.9 µM) | 26 µg/mL (≈ 63.8 µM) | 20 µM |  |  | 
CN(C)CCCN1c2ccc(Cl)cc2Sc2cccnc21 [compound 126, 3-(7-chloro-10H-benzo[b]pyrido [2,3-e][1,4]thiazin-10-yl)-N,N-dimethyl-propan-1-amine] | 82 µg/mL (≈ 256 µM) | > 100 µg/mL | > 100 µM |  |  | 
CN(C)CCCN1c2ccccc2Sc2cc(-c3cccc4cn[nH]c34)ccc21 [compound 129, 3-(3-(1H-indazol-7-yl)-10H-phenothiazin-10-yl)-N,N-dimethylpropan-1-amine] | 6 µg/mL (≈ 15 µM) | > 100 µg/mL | > 100 µM |  |  | 
CN(C)CCCN1c2ccccc2Sc2cc(-c3ccc4scnc4c3)ccc21 [compound 130, 3-(3-(benzo[d]thiazol-5-yl)-10H-phenothiazin-10-yl)-N,N-dimethylpropan-1-amine] | 7 µg/mL (≈ 16.8 µM) | > 100 µg/mL | 57 µM |  |  | 
O=C(CC1CCC(F)(F)CC1)Nc1cc(C(F)(F)F)cc2c1Nc1ccccc1S2 [compound 132, 2-(4,4-difluorocyclo-hexyl)-N-(3-(trifluoromethyl)-10H-phenothiazin-1-yl)acetamide] | 4 µg/mL (≈ 9.04 µM) | > 100 µg/mL | > 100 µM |  |  | 
Nc1cccc(C(=O)Nc2cc(C(F)(F)F)cc3c2Nc2ccccc2S3)c1 [compound 134, 3-amino-N-(3-(trifluoromethyl)-10H-phenothiazin-1-yl)benzamide] | 6 µg/mL (≈ 14.9 µM) | > 100 µg/mL | > 100 µM |  |  | 
CN(C)CCCN1c2ccccc2Sc2cc(-c3nc4ccccc4[nH]3)ccc21 [compound 137, 3-(3-(1H-benzo[d]imidazol-2-yl)-10H-phenothiazin-10-yl)-N,N-dimethylpropan-1-amine] | 13 µg/mL (≈ 32.5 µM) | > 100 µg/mL | 160 µM |  |  | 
CN(C)CCCN1c2ccccc2Sc2cc(-c3nc4ccccc4s3)ccc21 [compound 143, 3-(3-(Benzo[d]thiazol-2-yl)-10H-phenothiazin-10-yl)-N,N-dimethylpropan-1-amine] | 3 µg/mL (≈ 7.18 µM) | > 100 µg/mL | > 100 µM |  |  | 
COc1ccc2[nH]c(-c3ccc4c(c3)Sc3ccccc3N4CCCN(C)C)cc2c1 [compound 144, 3-(3-(5-methoxy-1H-indol-2-yl)-10H-phenothiazin-10-yl)-N,N-dimethylpropan-1-amine] | 3 µg/mL (≈ 6.98 µM) | > 100 µg/mL | > 100 µM |  |  | 
O=C(Nc1cc(C(F)(F)F)cc2c1Nc1ccccc1S2)C1CCCC(O)C1 (stereo not drawn) [compound 148, 3-hydroxy-N-(3-(trifluoromethyl)-10H-phenothiazin-1-yl)cyclohexane-carboxamide] | 26 µg/mL (≈ 63.7 µM) | > 100 µg/mL | > 100 µM |  |  | 
NCC1CCCC(C(=O)Nc2cc(C(F)(F)F)cc3c2Nc2ccccc2S3)C1 (stereo not drawn) [compound 149, 3-(aminomethyl)-N-(3-(trifluoromethyl)-10H-phenothiazin-1-yl)cyclohexane-carboxamide] | 13 µg/mL (≈ 30.8 µM) | 54 µg/mL (≈ 128 µM) | 15 µM |  |  | 
CN(C)CCCN1c2ccccc2Sc2cc(-c3cc4cc(O)ccc4[nH]3)ccc21 [compound 152, 2-(10-(3-(dimethylamino)propyl)-10H-phenothiazin-3-yl)-1H-indol-5-ol] | 13 µg/mL (≈ 31.3 µM) | > 100 µg/mL | > 100 µM |  |  | 
COc1cc(-c2ccc3c(c2)Sc2ccccc2N3CCCN(C)C)ccn1 [compound 153, 3-(3-(2-methoxypyridin-4-yl)-10H-phenothiazin-10-yl)-N,N-dimethylpropan-1-amine] | 25 µg/mL (≈ 63.9 µM) | > 100 µg/mL | > 100 µM |  |  | 
NCCN1CCC(C(=O)Nc2cc(C(F)(F)F)cc3c2Nc2ccccc2S3)CC1 [compound 155, trifluoroacetate] |  |  |  | 35 µg/mL | 35 µg/mL | 53 µM
NC1CCCC(C(=O)Nc2cc(C(F)(F)F)cc3c2Nc2ccccc2O3)C1 (stereo not drawn) [compound 156, 3-amino-N-(3-(trifluoromethyl)-10H-phenoxazin-1-yl)cyclohexane-carboxamide] | 13 µg/mL (≈ 33.2 µM) | 25 µg/mL (≈ 63.9 µM) | > 100 µM |  |  | 
NCC1CCC(CNc2cc(C(F)(F)F)cc3c2Nc2ccccc2S3)CC1 (stereo not drawn) [compound 158, N-((4-(aminomethyl)cyclohexyl)methyl)-3-(trifluoromethyl)-10H-phenothiazin-1-amine] | 3 µg/mL (≈ 7.36 µM) | 52 µg/mL (≈ 128 µM) | 53 µM |  |  | 
FC(F)(F)c1cc(NC[C@@H]2COCCN2)c2c(c1)Sc1ccccc1N2 [compound 159, (R)-N-(morpholin-3-ylmethyl)-3-(trifluoromethyl)-10H-phenothiazin-1-amine] | 12 µg/mL (≈ 31.5 µM) | > 100 µg/mL | > 100 µM |  |  | 
NC[C@H]1CC[C@H](C(=O)Nc2cc(C(F)(F)F)cc3c2Nc2ccccc2O3)CC1 [compound 160, (1r,4r)-4-(aminomethyl)-N-(3-(trifluoromethyl)-10H-phenoxazin-1-yl)cyclohexane-carboxamide] | 26 µg/mL (≈ 64.1 µM) | 52 µg/mL (≈ 128 µM) | 60 µM |  |  | 
NC1CCCC(C(=O)Nc2cc(Cl)cc3c2Nc2ccccc2S3)C1 (stereo not drawn) [compound 161, 3-amino-N-(3-chloro-10H-phenothiazin-1-yl)cyclohexane-carboxamide] | 24 µg/mL (≈ 64.2 µM) | 96 µg/mL (≈ 257 µM) | 68 µM |  |  | 
NCCCNC1CCCC(C(=O)Nc2cc(C(F)(F)F)cc3c2Nc2ccccc2S3)C1 (stereo not drawn) [compound 162, 3-((3-aminopropyl)amino)-N-(3-(trifluoromethyl)-10H-phenothiazin-1-yl)cyclohexane-carboxamide] | 30 µg/mL (≈ 64.6 µM) | > 100 µg/mL | 50 µM |  |  | 
NCCNC1CCCC(C(=O)Nc2cc(C(F)(F)F)cc3c2Nc2ccccc2S3)C1 (stereo not drawn) [compound 163, 3-((2-aminoethyl)amino)-N-(3-(trifluoromethyl)-10H-phenothiazin-1-yl)cyclohexane-carboxamide] | 14 µg/mL (≈ 31.1 µM) | 14 µg/mL (≈ 31.1 µM) | 72 µM |  |  | 
